Results published in patent US10435361B2, “Kinase inhibitors” (Topivert Pharma Limited, priority 2013, dated 2019).

How the values were obtained:
[1] = test system: Salmonella typhimurium TA98; experiment: Bacterial reverse mutation screen, strain TA98; assay type: cell-based; conditions: presence or absence of S-9 mix; up to 1000 μg/plate analysable
Method: (§1) Studies were conducted by Sequani (Ledbury, Herefordshire, UK) to assess compounds of the invention for their ability to induce mutations in two histidine dependent auxotrophic mutants of Salmonella typhimurium, strains TA98 and TA100 in vitro.
(§2) The mutation screen was conducted using the plate incorporation method and was performed in both the presence and absence of S-9 mix (a liver post-mitochondrial fraction derived from the livers of Aroclor 1254 treated rats). The bacteria were exposed to test compounds dissolved in dimethylsulphoxide, which solvent was also used as the negative control. The dose levels used were 0.32, 1.6, 8, 40, 200, 1000 or 5000 μg/plate.
(§3) Precipitation was also noted in both strains at 1000 μg/plate in the presence and absence of S-9 mix.

[2] = Hydrolytic stability study (DMSO/water 3:1, 60° C.); assay type: physicochemical
Method: Chemical stability of compounds of the invention was assessed in a mixture of DMSO and water (3:1) at a test compound concentration of 1 mg/mL
Agilent, Waters X-Select C18, 2.5 μm, 4.6×30 mm column, 4 min method, 5-95%
MeCN/water (0.1% formic acid).
Column Oven Temperature 40° C.
Sample Preparation • A 1.0 mg sample of test compound was dissolved in 750 μL of DMSO. Water (250 μL) was added slowly, ensuring no precipitation occurred.
Recording Stability • A 50 μL aliquot of the test solution was removed and analysed in duplicate by 5 μL HPLC injections. The peak area for the test compound was recorded following manual integration of the corresponding UV trace. • The test solution was heated to 60° C., with stirring, and 50 μL aliquots removed for HPLC analysis at 5 and 24 h timepoints.

[3] = test system: Lewis rats; experiment: Endotoxin-induced uveitis in rats; assay type: in vivo; conditions: rats treated with intravitreal endotoxin LPS
Method: Male, Lewis rats (6-8 weeks old, Charles River UK Limited) are housed in cages of 3 at 19-21° C. with a 12 h light/dark cycle (07:00/19:00) and fed a standard diet of rodent chow and water ad libitum. Non-fasted rats are weighed, individually identified on the tail with a permanent marker, and receive a single intravitreal administration into the right vitreous humor (5 μL dose volume) of 100 ng/animal of LPS (Escherichia coli 0111:B4 prepared in PBS, Sigma Aldrich, UK) using a 32-gauge needle. Untreated rats are injected with PBS. Test compound, dexamethasone (Dex) or vehicle (20% hydroxypropyl-β-cyclodextrin, 0.1% HPMC, 0.01% Benzalkonium chloride, 0.05% EDTA, 0.7% NaCl in deionised water) are administered by the topical route onto the right eye (10 μL) of animals 30 minutes prior to LPS, at the time of LPS administration, and 1, 2 and 4 hours post LPS administration. Before administration, the solution or suspension to be administered is agitated for 5 minutes to ensure a uniform suspension. 6 hours after LPS dosing, animals are euthanized by overdose with pentobarbitone (i.v.). Following euthanasia, the right eye of each animal is enucleated and dissected into front (anterior) and back (posterior) sections around the lens. Each section is weighed and homogenised in 500 μL of sterile phosphate buffered saline followed by 20 minutes centrifugation at 12000 rpm at 4° C. The resulting supernatant is divided into 3 aliquots and stored at −80° C. until subsequent cytokine analysis by R&D DuoSet ELISA.

[4] = test system: PBMCs; experiment: IL-2 and IFN gamma release in CD3/CD28 stimulated PBMC cells; assay type: cell-based; conditions: Homo sapiens, assay (c)
In short: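 Healthy-donor PBMCs, density-gradient isolated, stimulated on plates pre-coated with anti-CD3 (0.3 μg/mL) and anti-CD28 (3 μg/mL) antibodies, with compound, for 3 days under standard culture conditions. IC50 derived from the dose-response curve.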

[5] = Plasma pharmacokinetics in rats, single intravenous or oral administration; assay type: in vivo; conditions: male, Wistar, rat, rats, intravenous 0.25 mg/kg
Method: Studies were conducted by Sai Life Sciences (Hinjewadi, Pune, India) to investigate the plasma pharmacokinetics and total colon tissue distribution of compounds of the invention. In particular, pharmacokinetic studies were carried out in: • male C57BL/6 mice, following a single oral administration; and • male Wistar rats following a single intravenous or oral administration.

[6] = test system: Salmonella typhimurium TA100; experiment: Bacterial reverse mutation screen, strain TA100; assay type: cell-based; conditions: presence or absence of S-9 mix; up to 1000 μg/plate analysable
Method: as §1, §2, §3

[7] = test system: PBMCs; experiment: LPS-induced TNFα/IL-8 release in PBMC cells; assay type: cell-based; conditions: Homo sapiens, assay (b), read-out: IC50 Values for Inhibition of Cytokine Release PBMCs IL-8
In short: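 Healthy-donor PBMCs isolated by density gradient were pretreated with compound for 2 h, then stimulated with 1 ng/mL LPS (E. coli 0111:B4) for 24 h at 37° C., 5% CO2. IL-8 and TNFα in supernatants measured by sandwich ELISA.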

[8] = test system: PBMCs; experiment: Cell mitosis assay in PBMCs; assay type: cell-based; conditions: Homo sapiens, PBMC, 5 μg/mL
In short: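 Human PBMCs from healthy donors, density-gradient isolated, stimulated with 2% PHA 48 h, then exposed 20 h to test compounds; demecolcine 0.1 μg/mL added 2 h before harvest. Fixed/permeabilised cells stained for phospho-histone H3 and propidium iodide; mitotic lymphocytes counted by flow cytometry.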

[9] = test system: BDF1 mice; experiment: TNBS-induced colitis in mice; assay type: in vivo; conditions: conducted over 2 days; vehicle corn oil/transcutol/maisine/cremophor ELP
Method: Non-fasted, 10-12 week old, male BDF1 mice are dosed by oral gavage twice daily with either vehicle (5 mL/kg), reference item (Budesonide 2.5 mg/kg) or test compound (1 or 5 mg/kg) one day before (Day −1) stimulation of the inflammatory response by treatment with 2,4,6-trinitrobenzenesulphonic acid (TNBS) (15 mg/mL in 50% ethanol/50% saline). On Day 0 of the study TNBS (200 μL) is administered intra-colonically via a plastic catheter with BID dosing of the vehicle, reference or test compound continuing for 2 or 4 days. During the study, animals are weighed every day and stool observations are made and recorded as a score, based on stool consistency. At the time of sacrifice on Day 2 (or Day 4), the large intestine is removed and the length and weight recorded. Sections of the colon are taken for histopathology scoring to determine disease severity.

[10] = target: CYP2C9 (Homo sapiens (Human), UniProt P11712); experiment: CYP2C9 inhibition studies; assay type: in vitro ADME; conditions: inhibition at 5 μM reported instead of 15 μM (precipitation)
Sequence of CYP2C9 (P11712 whole entry): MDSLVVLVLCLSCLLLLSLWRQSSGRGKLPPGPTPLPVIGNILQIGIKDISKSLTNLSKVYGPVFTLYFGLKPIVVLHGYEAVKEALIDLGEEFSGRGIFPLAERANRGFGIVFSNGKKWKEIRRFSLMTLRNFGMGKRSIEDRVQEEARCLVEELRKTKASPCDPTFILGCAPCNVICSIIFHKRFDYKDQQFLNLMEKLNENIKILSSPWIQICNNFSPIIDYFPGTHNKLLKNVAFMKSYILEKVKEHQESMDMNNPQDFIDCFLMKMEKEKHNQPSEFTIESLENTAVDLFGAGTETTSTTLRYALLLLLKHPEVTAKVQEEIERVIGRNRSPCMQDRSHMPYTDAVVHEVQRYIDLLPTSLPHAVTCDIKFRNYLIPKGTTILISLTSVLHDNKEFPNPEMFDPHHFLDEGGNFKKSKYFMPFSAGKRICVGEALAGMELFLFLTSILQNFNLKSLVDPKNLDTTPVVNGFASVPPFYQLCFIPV
Method: Assessment of certain in vitro ADME (absorption, distribution, metabolism, and excretion) parameters for certain compounds of the invention was conducted by BioFocus (Saffron Walden, UK).

Structure (SMILES)	increases in revertant colonies, strain TA98 [1]	% Parent Remaining ([2]; DMSO/water 3:1, 0 min) [%]	% Parent Remaining ([2]; DMSO/water 3:1, 60° C., 1440 min) [%]	cytokine levels in the anterior and posterior segments of the eyes [3]	IC50 ([4]; read-out: IC50 Values for Inhibition of Cytokine Release PBMCs IFNγ) [nM]	IC50 ([4]; read-out: IC50 Values for Inhibition of Cytokine Release PBMCs IL-2) [nM]	clearance [5] [mL/min/kg]	increases in revertant colonies, strain TA100 [6]	IC50 [7] [nM]	inhibition at 5 µg/mL [8] [%]	activity in TNBS-induced colitis (histopathology analysis) [9]	% Inh at 5 μM ([10]; CYP2C9, 0 min preincubation)	% Inh at 5 μM ([10]; CYP2C9, 30 min preincubation)
COc1c(NC(=O)Nc2ccc(Oc3ccnc(Nc4ccccc4)c3)c3ccccc23)cc(C(C)(C)C)cc1C(=O)NC1COC1 [Example 75, 5-(tert-Butyl)-2-methoxy-N-(oxetan-3-yl)-3-(3-(4-((2-(phenylamino)pyridin-4-yl)ox)-naphthalen-1-yl)ureido)benzamide]	no dose-related or statistically significant increases in revertant colonies	100	99	significantly reduced	14.9	56.8	4.4	no dose-related or statistically significant increases in revertant colonies	5	42.6	displayed substantial activity		
C#CC(C)(C)c1cc(NC(=O)Nc2ccc(Oc3ccnc(Nc4cc(C)c5[nH]ncc5c4)n3)c3ccccc23)n(-c2ccc(C)cc2)n1 [Ref Cpd A]												31^[†] %	66^[†] %
